# Experimental data reported in patent US20220372585A1, “Sensors for Aromatic Compounds and Methods of Making and Using Same” (Washington University, priority 2021, published 2022).
# pEC50: −log10 of the molar value. Several values for one entry are separate records, joined by “and”; a condition that tells them apart may be missing. Equal values may be shown once. Entries after “also recorded” stand apart in the source; their conditions may differ.
# What was measured:
# Type in all cases: cell-based, E. coli
# E274Q TyrR = target: T1, E274Q TyrR (Escherichia coli, UniProt P07604, E274Q); assay: cell-based
# T1 construct: expressed in transfected cells; host or cells: E. coli Nissle 1917 (EcN), plasmid pAGR102
# T1 sequence (P07604 whole entry E274Q): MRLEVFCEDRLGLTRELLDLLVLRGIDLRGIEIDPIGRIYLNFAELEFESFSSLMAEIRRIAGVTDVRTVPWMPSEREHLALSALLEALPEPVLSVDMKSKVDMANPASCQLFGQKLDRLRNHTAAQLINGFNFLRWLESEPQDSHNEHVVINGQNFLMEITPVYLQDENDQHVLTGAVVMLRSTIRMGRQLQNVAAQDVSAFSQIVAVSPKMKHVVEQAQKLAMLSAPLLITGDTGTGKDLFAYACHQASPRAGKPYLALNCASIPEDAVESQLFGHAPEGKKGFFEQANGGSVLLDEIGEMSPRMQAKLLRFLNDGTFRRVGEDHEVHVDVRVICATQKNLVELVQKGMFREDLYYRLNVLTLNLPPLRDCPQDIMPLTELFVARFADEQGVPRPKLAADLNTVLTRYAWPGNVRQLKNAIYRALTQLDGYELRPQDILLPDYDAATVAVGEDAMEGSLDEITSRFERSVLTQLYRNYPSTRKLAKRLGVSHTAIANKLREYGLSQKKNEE
# Description: (§1) Everything but (Eb) medium was prepared by supplementing M9 minimal medium with 1 mM MgSO4, […]), 0.4% w/v glucose, and all non-aromatic amino acids (0.8 mM alanine, 5 mM arginine, 0.4 mM asparagine, 0.4 mM aspartate, 0.1 mM cysteine, 0.6 mM glutamate, 0.6 mM glutamine, 0.8 mM glycine, 0.2 mM histidine, 0.4 mM isoleucine, 0.8 mM leucine, 0.4 mM lysine, 0.2 mM methionine, 0.4 mM proline, 10 mM serine, 0.4 mM threonine, and 0.6 mM valine). […] Experimental cultures were prepared by diluting overnight cultures 200× into 0.6 mL fresh Eb medium supplemented with the respective ligands (Phe and Tyr) in 2 mL 96-deep well plates (Eppendorf, Hamburg, Germany). Cultures were grown for 8 h at 37° C. and 250 rpm before sampled for fluorimetry or flow cytometry analysis. All medium was supplemented with the relevant antibiotics for plasmid maintenance (34 mg/ml chloramphenicol and 100 mg/ml spectinomycin).
# (§2) […] culture samples were collected and transferred to 96-well assay microplates (clear, flat bottom black, Greiner Bio-One). The fluorescence and culture absorbance (Abs) were measured using a Tecan microplate reader (Infinite M200 Pro) as previously described. The fluorescence of GFP was measured with an excitation at 483 nm and emission at 530 nm. The Abs of the samples was measured at 600 nm. The measured fluorescence was normalized by dividing by the Abs and subtracting the same ratio obtained from non-fluorescent wild-type cells (Equation 1).
# (§3) Flow cytometry was performed as previously described. […] Cytometry data was gated by forward and side scatter.
# E274Q+T14V TyrR = target: T2, E274Q+T14V TyrR (Escherichia coli, UniProt P07604, E274Q/T14V); assay: cell-based
# T2 construct: expressed in transfected cells; host or cells: E. coli Nissle 1917 (EcN), plasmid pAGR157
# T2 sequence (P07604 whole entry T14V/E274Q): as the sequence (P07604 whole entry E274Q) above, with T14V counted along it
# Description: as §1, §2, §3
# R10F TyrR = target: T3, R10F TyrR (Escherichia coli, UniProt P07604, R10F); assay: cell-based; conditions: ligand alone, listed as Phe
# T3 construct: expressed in transfected cells; host or cells: E. coli Nissle 1917 (EcN), plasmid pAGR473
# T3 sequence (P07604 whole entry R10F): as the sequence (P07604 whole entry E274Q) above, with R10F, Q274E counted along it
# Description: as §1, §2, §3
# E274Q+D103S TyrR = target: T4, E274Q+D103S TyrR (Escherichia coli, UniProt P07604, D103S/E274Q); assay: cell-based
# T4 construct: expressed in transfected cells; host or cells: E. coli Nissle 1917 (EcN), plasmid pAGR159
# T4 sequence (P07604 whole entry D103S/E274Q): as the sequence (P07604 whole entry E274Q) above, with D103S counted along it
# Description: as §1, §2, §3
# wild-type TyrR = target: T5, wild-type TyrR (Escherichia coli, UniProt P07604); assay: cell-based
# T5 construct: tyrR (WT); expressed in transfected cells; host or cells: E. coli Nissle 1917 (EcN)
# T5 sequence (P07604 whole entry): as the sequence (P07604 whole entry E274Q) above, with Q274E counted along it
# Description: as §1, §2, §3
# [1] = target: T6, E274Q TyrR with T14V and D103S combined (Escherichia coli, UniProt P07604, D103S/E274Q/T14V); assay: PtyrP-GFP reporter, E274Q TyrR with both T14V and D103S mutations combined; conditions: both mutations (T14V, D103S) combined in E274Q TyrR
# T6 construct: tyrR (WT); expressed in transfected cells; host or cells: E. coli Nissle 1917 (EcN)
# T6 sequence (P07604 whole entry T14V/D103S/E274Q): as the sequence (P07604 whole entry E274Q) above, with T14V, D103S counted along it
# Description: as §1, with “All medium was supplemented with the relevant antibiotics for plasmid maintenance (34 mg/ml chloramphenicol and 100 mg/ml spectinomycin).” left out
# as §2, with “1). […]” for “1).”
# E274Q+C7V TyrR = target: T7, E274Q+C7V TyrR (Escherichia coli, UniProt P07604, C7V/E274Q); assay: PtyrP-GFP reporter, E274Q+C7V TyrR (pAGR160) in EcN
# T7 construct: expressed in transfected cells; host or cells: E. coli Nissle 1917 (EcN), plasmid pAGR160
# T7 sequence (P07604 whole entry C7V/E274Q): as the sequence (P07604 whole entry E274Q) above, with C7V counted along it
# Description: as §1, §2, §3
# E274Q+D103H TyrR = target: T8, E274Q+D103H TyrR (Escherichia coli, UniProt P07604, D103H/E274Q); assay: PtyrP-GFP reporter, E274Q+D103H TyrR (pAGR158) in EcN
# T8 construct: expressed in transfected cells; host or cells: E. coli Nissle 1917 (EcN), plasmid pAGR158
# T8 sequence (P07604 whole entry D103H/E274Q): as the sequence (P07604 whole entry E274Q) above, with D103H counted along it
# Description: as §1, §2, §3
# E274Q+T14G TyrR = target: T9, E274Q+T14G TyrR (Escherichia coli, UniProt P07604, E274Q/T14G); assay: PtyrP-GFP reporter, E274Q+T14G TyrR (pAGR156) in EcN
# T9 construct: expressed in transfected cells; host or cells: E. coli Nissle 1917 (EcN), plasmid pAGR156
# T9 sequence (P07604 whole entry T14G/E274Q): as the sequence (P07604 whole entry E274Q) above, with T14G counted along it
# Description: as §1, §2, §3
# E274Q+L11G TyrR = target: T10, E274Q+L11G TyrR (Escherichia coli, UniProt P07604, E274Q/L11G); assay: PtyrP-GFP reporter, E274Q+L11G TyrR (pAGR155) in EcN
# T10 construct: expressed in transfected cells; host or cells: E. coli Nissle 1917 (EcN), plasmid pAGR155
# T10 sequence (P07604 whole entry L11G/E274Q): as the sequence (P07604 whole entry E274Q) above, with L11G counted along it
# Description: as §1, §2, §3
# [2] = wild-type TyrR, pAGR010, FIG. 1C, 8 h
# [3] = E274Q+C7V TyrR, pAGR160, FIG. 10A, 8 h
# [4] = E274Q+D103H TyrR, pAGR158, FIG. 10D, 8 h
# [5] = E274Q+T14G TyrR, pAGR156, FIG. 10C, 8 h
# [6] = E274Q+L11G TyrR, pAGR155, FIG. 10B, 8 h
compound,measurement,setting,value
"N[C@@H](Cc1ccccc1)C(=O)O [Phenylalanine, phenylalanine]",fold induction of PtyrP,E274Q TyrR,16 fold
same,pEC50,"E274Q TyrR; KA (half maximal constant), pAGR102, FIG. 2C, 2D, 8 h",4.40 and 4.38
same,Fmax,"E274Q TyrR; pAGR102, FIG. 2C, 2D, 8 h",12800
same,Fmin,"E274Q TyrR; pAGR102, FIG. 2C, 2D, 8 h",982
same,n (Hill coefficient),"E274Q TyrR; pAGR102, FIG. 2C, 2D, 8 h",2
same,pEC50,"E274Q+T14V TyrR; KA (half maximal constant), pAGR157, FIG. 2C, 2E, 8 h",4.10 and 4.08
same,KA relative to the E274Q mutant,E274Q+T14V TyrR; higher than E274Q,2 fold
same,Fmax,"E274Q+T14V TyrR; pAGR157, FIG. 2C, 2E, 8 h",7560
same,Fmin,"E274Q+T14V TyrR; pAGR157, FIG. 2C, 2E, 8 h",814
same,n (Hill coefficient),"E274Q+T14V TyrR; pAGR157, FIG. 2C, 2E, 8 h",1.4
same,response of PtyrP,R10F TyrR,lack of response; also recorded: no significant response
same,pEC50,"E274Q+D103S TyrR; KA (half maximal constant), pAGR159, FIG. 2C, 2F, 8 h",3.89
same,KA relative to the E274Q mutant,E274Q+D103S TyrR; higher than E274Q,3 fold
same,Fmax,"E274Q+D103S TyrR; pAGR159, FIG. 2C, 2F, 8 h",10700
same,Fmin,"E274Q+D103S TyrR; pAGR159, FIG. 2C, 2F, 8 h",1310
same,n (Hill coefficient),"E274Q+D103S TyrR; pAGR159, FIG. 2C, 2F, 8 h",0.7
same,fold induction of PtyrP,wild-type TyrR; overexpression of wild-type TyrR,4 fold
same,Fmax,wild-type TyrR; [2],10500
same,Fmin,wild-type TyrR; [2],2900
same,n (Hill coefficient),wild-type TyrR; [2],5.5
same,pEC50,"wild-type TyrR; wild-type TyrR, pAGR010, FIG. 1C, 8 h, read-out: KA (half maximal constant)",4.14
same,response of PtyrP,[1],eliminated
same,pEC50,E274Q+C7V TyrR,4.34
same,Fmax,E274Q+C7V TyrR; [3],10800
same,Fmin,E274Q+C7V TyrR; [3],1120
same,n (Hill coefficient),E274Q+C7V TyrR; [3],2.5
same,pEC50,E274Q+D103H TyrR,3.96
same,Fmax,E274Q+D103H TyrR; [4],11800
same,Fmin,E274Q+D103H TyrR; [4],2150
same,n (Hill coefficient),E274Q+D103H TyrR; [4],1
same,pEC50,E274Q+T14G TyrR,4.43
same,Fmax,E274Q+T14G TyrR; [5],12400
same,Fmin,E274Q+T14G TyrR; [5],1430
same,n (Hill coefficient),E274Q+T14G TyrR; [5],2.4
same,pEC50,E274Q+L11G TyrR,4.35
same,Fmax,E274Q+L11G TyrR; [6],12900
same,Fmin,E274Q+L11G TyrR; [6],5570
same,n (Hill coefficient),E274Q+L11G TyrR; [6],2.2
